Key:
[1] = tested on: A549-ACE2 infected with SARS-CoV-2; assay: cell count relative to DMSO; higher = less toxic; conditions: 24 h
Caco-2 [2] = assay: cell viability relative to DMSO; higher = less toxic; conditions: 72 h
Calu-3 [3] = assay: as above; conditions: 72 h
HepG2 [4] = assay: as above; conditions: 72 h
U2OS [5] = assay: as above; conditions: 72 h
Vero E6 [6] = assay: as above; conditions: 72 h
[7] = tested on: A549-ACE2 infected with SARS-CoV-2; assay: SARS-CoV-2 infection rate relative to DMSO; higher = more infection; conditions: 24 h
A549-ACE2 [8] = assay: drug-induced phospholipidosis relative to tamoxifen; higher = more phospholipidosis
[9] = tested on: A549-ACE2 infected with SARS-CoV-2; assay: morphology score (similarity to uninfected cells); higher = more like uninfected cells; conditions: 24 h
Caco-2 [10] = assay: relative viability EC50 (midpoint between 100% and the lowest measured viability); higher = less toxic; conditions: 72 h
Calu-3 [11] = assay: as above; conditions: 72 h
HepG2 [12] = assay: as above; conditions: 72 h
U2OS [13] = assay: as above; conditions: 72 h
Vero E6 [14] = assay: as above; conditions: 72 h
Caco-2 [15] = assay: drug sensitivity score (DSS) for viability; higher = more toxic; extreme values may be limits of the assay; conditions: 72 h
Calu-3 [16] = assay: as above; conditions: 72 h
HepG2 [17] = assay: as above; conditions: 72 h
U2OS [18] = assay: as above; conditions: 72 h
Vero E6 [19] = assay: as above; conditions: 72 h
A549-ACE2 [20] = assay: phospholipidosis EC50; higher = less potent phospholipidosis inducer

Cc1csc(NC(=O)CSc2ccc(-c3ccccc3)nn2)n1
Conditions | SARS-CoV-2 infection rate, [7] [%] | cell count, [1] [%] | cell viability, Caco-2 [2] [%] | cell viability, Calu-3 [3] [%] | cell viability, HepG2 [4] [%] | cell viability, U2OS [5] [%] | cell viability, Vero E6 [6] [%] | morphology score, [9]
1 nM | – | – | 92.1 | 85 | 97.8 | 98 | 101 | –
10 nM | – | – | 93.4 | 99.1 | 109 | 97.3 | 102 | –
100 nM | – | – | 103 | 104 | 90.4 | 102 | 99.1 | –
0.3 µM | 105 | 97 | – | – | – | – | – | -0.03
1000 nM | – | – | 97 | 99.3 | 89.1 | 99.3 | 105 | –
3 µM | 88 | 97 | – | – | – | – | – | 0.29
10 µM | 92 | 107 | – | – | – | – | – | 0.25
10000 nM | – | – | 104 | 108 | 87.4 | 104 | 94.5 | –
30 µM | 84 | 100 | – | – | – | – | – | 0.25

drug-induced phospholipidosis [%], A549-ACE2 [8]
Conditions | 0.3 µM | 0.833333 µM | 3.33333 µM | 6.66667 µM | 10 µM | 30 µM
24 h | 1.93 | -1.81 | -0.96 | 2.15 | 1.89 | 7.11
48 h | 2.87 | 0.35 | 1.94 | 5.23 | 4.85 | 15.6
72 h | 2.21 | 0.253 | 3.17 | 3.1 | 6.16 | 24.6

Conditions | drug sensitivity score | relative viability EC50 [µM]
Caco-2 [10] | – | > 10
Caco-2 [15] | 0 | –
Calu-3 [11] | – | > 10
Calu-3 [16] | 0 | –
HepG2 [12] | – | > 10
HepG2 [17] | 1.2 | –
U2OS [13] | – | > 10
U2OS [18] | 0 | –
Vero E6 [14] | – | > 10
Vero E6 [19] | 0 | –

CSc1ccc2c(c1)[C@H](N1CCN(C)CC1)Cc1ccccc1S2 (racemic) [metitepine]
Conditions | SARS-CoV-2 infection rate [%] | cell count [%] | cell viability [%] | morphology score | phospholipidosis EC50 [µM]
A549-ACE2 [20], 24 h | – | – | – | – | 3.04
A549-ACE2 [20], 48 h | – | – | – | – | 5.86
A549-ACE2 [20], 72 h | – | – | – | – | 9.23
Caco-2 [2], 1 nM | – | – | 108 | – | –
Caco-2 [2], 10 nM | – | – | 92.9 | – | –
Caco-2 [2], 100 nM | – | – | 99.2 | – | –
Caco-2 [2], 1000 nM | – | – | 102 | – | –
Caco-2 [2], 10000 nM | – | – | 48.5 | – | –
Calu-3 [3], 1 nM | – | – | 98.4 | – | –
Calu-3 [3], 10 nM | – | – | 101 | – | –
Calu-3 [3], 100 nM | – | – | 98.2 | – | –
Calu-3 [3], 1000 nM | – | – | 104 | – | –
Calu-3 [3], 10000 nM | – | – | 73.2 | – | –
HepG2 [4], 1 nM | – | – | 101 | – | –
HepG2 [4], 10 nM | – | – | 107 | – | –
HepG2 [4], 100 nM | – | – | 103 | – | –
HepG2 [4], 1000 nM | – | – | 99 | – | –
HepG2 [4], 10000 nM | – | – | 64.3 | – | –
U2OS [5], 1 nM | – | – | 98.9 | – | –
U2OS [5], 10 nM | – | – | 97.6 | – | –
U2OS [5], 100 nM | – | – | 97.1 | – | –
U2OS [5], 1000 nM | – | – | 97.2 | – | –
U2OS [5], 10000 nM | – | – | 93.2 | – | –
Vero E6 [6], 1 nM | – | – | 106 | – | –
Vero E6 [6], 10 nM | – | – | 104 | – | –
Vero E6 [6], 100 nM | – | – | 102 | – | –
Vero E6 [6], 1000 nM | – | – | 101 | – | –
Vero E6 [6], 10000 nM | – | – | 71.6 | – | –
[1], 0.1 µM | – | 101 | – | – | –
[1], 0.3 µM | – | 104 | – | – | –
[1], 1 µM | – | 108 | – | – | –
[1], 3 µM | – | 94 | – | – | –
[7], 0.1 µM | 106 | – | – | – | –
[7], 0.3 µM | 90 | – | – | – | –
[7], 1 µM | 88 | – | – | – | –
[7], 3 µM | 47 | – | – | – | –
[9], 0.1 µM | – | – | – | 0.14 | –
[9], 0.3 µM | – | – | – | 0.39 | –
[9], 1 µM | – | – | – | 0.32 | –
[9], 3 µM | – | – | – | 0.72 | –

drug-induced phospholipidosis [%], A549-ACE2 [8]
Conditions | 0.3 µM | 0.833333 µM | 3.33333 µM | 6.66667 µM | 10 µM | 30 µM
24 h | 7.38 | 6.64 | 62.5 | 91.7 | 105 | 86.3
48 h | 6.3 | 11.3 | 47.9 | 92.1 | 115 | –
72 h | 8.87 | 6.23 | 37.4 | 86.6 | 125 | –

Conditions | drug sensitivity score | relative viability EC50 [µM]
Caco-2 [10] | – | 3.35
Caco-2 [15] | 2.6 | –
Calu-3 [16] | 0.8 | –
HepG2 [17] | 1.8 | –
U2OS [13] | – | > 10
U2OS [18] | 0 | –
Vero E6 [19] | 1.1 | –

CN1Cc2ccccc2[C@@H]2c3cccc4[nH]cc(c34)C[C@H]21 [CY208-243]
Conditions | SARS-CoV-2 infection rate [%] | cell count [%] | cell viability [%] | morphology score | phospholipidosis EC50 [µM]
A549-ACE2 [20], 24 h | – | – | – | – | 8.69
A549-ACE2 [20], 48 h | – | – | – | – | 27.8
Caco-2 [2], 1 nM | – | – | 99.1 | – | –
Caco-2 [2], 10 nM | – | – | 100 | – | –
Caco-2 [2], 100 nM | – | – | 94.8 | – | –
Caco-2 [2], 1000 nM | – | – | 110 | – | –
Caco-2 [2], 10000 nM | – | – | 82.8 | – | –
Calu-3 [3], 1 nM | – | – | 92.8 | – | –
Calu-3 [3], 10 nM | – | – | 99.8 | – | –
Calu-3 [3], 100 nM | – | – | 93.8 | – | –
Calu-3 [3], 1000 nM | – | – | 96.5 | – | –
Calu-3 [3], 10000 nM | – | – | 90.4 | – | –
HepG2 [4], 1 nM | – | – | 102 | – | –
HepG2 [4], 10 nM | – | – | 96.9 | – | –
HepG2 [4], 100 nM | – | – | 92.1 | – | –
HepG2 [4], 1000 nM | – | – | 99.5 | – | –
HepG2 [4], 10000 nM | – | – | 59.7 | – | –
U2OS [5], 1 nM | – | – | 95.7 | – | –
U2OS [5], 10 nM | – | – | 99.4 | – | –
U2OS [5], 100 nM | – | – | 97.3 | – | –
U2OS [5], 1000 nM | – | – | 100 | – | –
U2OS [5], 10000 nM | – | – | 83.3 | – | –
Vero E6 [6], 1 nM | – | – | 99 | – | –
Vero E6 [6], 10 nM | – | – | 92.7 | – | –
Vero E6 [6], 100 nM | – | – | 97 | – | –
Vero E6 [6], 1000 nM | – | – | 99.2 | – | –
Vero E6 [6], 10000 nM | – | – | 83.8 | – | –
[1], 0.3 µM | – | 97 | – | – | –
[1], 3 µM | – | 77 | – | – | –
[1], 10 µM | – | 82 | – | – | –
[1], 30 µM | – | 80 | – | – | –
[7], 0.3 µM | 100 | – | – | – | –
[7], 3 µM | 99 | – | – | – | –
[7], 10 µM | 87 | – | – | – | –
[7], 30 µM | 52 | – | – | – | –
[9], 0.3 µM | – | – | – | -0.03 | –
[9], 3 µM | – | – | – | 0.26 | –
[9], 10 µM | – | – | – | 0.44 | –
[9], 30 µM | – | – | – | 0.69 | –

drug-induced phospholipidosis [%], A549-ACE2 [8]
Conditions | 0.3 µM | 0.833333 µM | 3.33333 µM | 6.66667 µM | 10 µM | 30 µM
24 h | 2.51 | 3.29 | 14.1 | 30.7 | 58.4 | 88.2
48 h | 1.19 | 3.01 | 17.4 | 28.4 | 77.3 | –
72 h | 4.71 | 3.9 | – | – | – | –

Conditions | drug sensitivity score | relative viability EC50 [µM]
Caco-2 [10] | – | > 10
Caco-2 [15] | 0.2 | –
Calu-3 [11] | – | > 10
Calu-3 [16] | 0 | –
HepG2 [17] | 2.1 | –
U2OS [13] | – | > 10
U2OS [18] | 0.3 | –
Vero E6 [14] | – | > 10
Vero E6 [19] | 0.4 | –

O=C(COc1ccc(Cl)cc1)N[C@H]1CC[C@H](NC(=O)COc2ccc(Cl)cc2)CC1 [ISRIB]
Conditions | SARS-CoV-2 infection rate, [7] [%] | cell count, [1] [%] | cell viability, Caco-2 [2] [%] | cell viability, Calu-3 [3] [%] | cell viability, HepG2 [4] [%] | cell viability, U2OS [5] [%] | cell viability, Vero E6 [6] [%] | morphology score, [9]
1 nM | – | – | 98.5 | 107 | 98.4 | 99.7 | 92.2 | –
10 nM | – | – | 97.1 | 88.2 | 100 | 96.2 | 98.4 | –
100 nM | – | – | 95.1 | 101 | 105 | 99 | 97.2 | –
0.3 µM | 100 | 99 | – | – | – | – | – | -0.01
1000 nM | – | – | 96.6 | 101 | 100 | 96 | 95.2 | –
3 µM | 96 | 103 | – | – | – | – | – | 0.03
10 µM | 103 | 99 | – | – | – | – | – | 0.01
10000 nM | – | – | 106 | 99.1 | 96.3 | 99.2 | 91.3 | –
30 µM | 108 | 99 | – | – | – | – | – | -0.2

drug-induced phospholipidosis [%], A549-ACE2 [8]
Conditions | 0.3 µM | 0.833333 µM | 3.33333 µM | 6.66667 µM | 10 µM | 30 µM
24 h | -0.51 | 0.36 | -2.23 | -2.98 | 3.29 | -1.76
48 h | 0.57 | -0.91 | -1.5 | 0.01 | 2.91 | 2.54
72 h | -0.626 | -0.0303 | -1 | 1.31 | 3.63 | 5.83

Conditions | drug sensitivity score | relative viability EC50 [µM]
Caco-2 [10] | – | > 10
Caco-2 [15] | 0 | –
Calu-3 [11] | – | > 10
Calu-3 [16] | 0 | –
HepG2 [12] | – | > 10
HepG2 [17] | 0 | –
U2OS [13] | – | > 10
U2OS [18] | 0 | –
Vero E6 [14] | – | > 10
Vero E6 [19] | 0 | –

From the supplement of paper PMC13380429
